Results as given in patent US10544133B2, “Heteroaryl substituted pyridyl compounds useful as kinase modulators” (BRISTOL-MYERS SQUIBB COMPANY, priority 2012, dated 2020).
Where two headings read alike, the source gives them in different places.

Tested on: TLR2 induced IL-6 in peripheral blood mononuclear cells (PBMCs)
Assay: PBMC TLR2 Induced IL-6 Assay
Format: cell-based
Settings: lipoteichoic acid 10 μg/ml 5 h, IL-6 by ELISA
Experimental: PBMC TLR2 Induced IL-6 Assay
Peripheral blood mononuclear cells (PBMCs) were isolated from human blood containing the anti-coagulant EDTA (2.5 mM) by centrifugation over a FICOLL® gradient. PBMCs (250000 cells/well) were cultured in assay media (RPMI with 10% heat inactivated FCS) with compounds for 30 minutes at 37° C. in a 5% CO2 incubator. Following pretreatment with compounds, cells were stimulated for 5 hours with 10 μg/ml lipoteichoic acid (Invivogen, San Diego, Calif.), a TLR2 agonist. At the end of the culture, plates were centrifuged at 1800 rpm for 10 minutes to pellet the cells. Supernatants were harvested and analyzed for IL-6 levels by ELISA (BD Biosciences, San Jose, Calif.).

[1] = Homo sapiens, PBMC, 5 h, value marked * = EC50, read-out: Cell EC50 (*)

SMILES	EC50 [1]	other results
CC(C)(O)[C@H](F)CNC(=O)c1cnc(Nc2ncc(C#N)cc2F)cc1NC1COC1 [Example 164]	174 nM	
CC(C)(O)[C@H](F)CNC(=O)c1cnc(Nc2ncc(C#N)c(N)n2)cc1NC1CC1 [Example 154]		EC50 (human PBMCs, value marked * = EC50, read-out: Cell EC50 (*)): 529 nM
CC(C)(O)[C@H](F)CNC(=O)c1cnc(Nc2ncc(C#N)cc2F)cc1NC1CCCOC1 (some centres unmarked) [Example 98]		IC50 (Homo sapiens, PBMC, 5 h, value without asterisk, read-out: Cell IC50): 690 nM
Cc1cnc(Nc2cc(NC(C)C)c(C(=O)NC[C@@H](F)C(C)(C)O)cn2)c(F)c1 [Example 129]	398 nM	
CC(C)Nc1cc(Nc2ncc(C#N)cc2Cl)ncc1C(=O)NC1CCC(C(C)(C)O)CC1 (centres unmarked) [Example 102]	71 nM	
